IC50 data for 30 compounds are collected here from patent EP2380890A1, “New 7,8-dihydro-1,6-naphthyridin-5(6h)-one-derivatives as PDE4 inhibitors” (Almirall, S.A., priority 2010, dated 2011).

This assay deals with PDE4. The assay is described as follows: PDE4 assay: [3H] cAMP Scintillation Proximity Assay (SPA) of phosphodiesterase activity. The format is biochemical. The settings on record: yeast extract of recombinant PDE4 enzyme, 30 nM [3H] cAMP, 1 h at room temperature, pH 7.5. How it is done:
Measurement of Phosphodiesterase Activity was done using a [3H] cAMP Scintillation Proximity Assay (SPA) (GE Healthcare). Compounds to be tested were disolved in DMSO at a stock concentration of 1mM and serial dilutions were prepared in 50% DMSO to determine IC50s.
The reactions were conducted in 96-well plates (Corning, Ref.3604) at room temperature, in 0.1 mL of reaction buffer containing (final concentrations): 50 mM Tris-HCl, pH 7.5, 8.3 mM MgCl2, 1.7 mM EGTA, 30 nM [3H] cAMP (approximately 150000 dpm/well) with or without the inhibitors. The reaction was initiated by adding yeast extract of recombinant PDE4 enzyme.
Plates were shaken for 1 h at room temperature and the incubation was terminated by adding 50 µL (0.5 mg /well) of SPA ytrium silicate beads (RPNQ 0150; GE Healthcare) in the presence of zinc sulfate. Plates were stored overnight in the dark and read on a TRILUX microtiter plate reader (Perkin Elmer).
In the case of `COc1cccc(Nc2cc(-c3ccccc3)nc3c2C(=O)NCC3)c1` [Example 1, 4-[(3-Methoxyphenyl)amino]-2-phenyl-7,8-dihydro-1,6-naphthyridin-5(6H)-one], the IC50 is 1.6 nM.
As for `O=C1NCCc2nc(-c3ccccc3)cc(Nc3ccc(CCO)cc3)c21` [Example 2, 4-{[4-(2-Hydroxyethyl)phenyl]amino}-2-phenyl-7,8-dihydro-1,6-naphthyridin-5(6H)-one], the IC50 was 12 nM.
On to `COc1cccc(Nc2cc(-c3cccc(OC)c3)nc3c2C(=O)NCC3)c1` [Example 8, 2-(3-Methoxyphenyl)-4-[(3-methoxyphenyl)amino]-7,8-dihydro-1,6-naphthyridin-5(6H)-one], for which the IC50 came to 8 nM.
The value for `COc1cccc(Nc2cc(-c3ccccc3OC)nc3c2C(=O)NCC3)c1` [Example 9, 2-(2-Methoxyphenyl)-4-[(3-methoxyphenyl)amino]-7,8-dihydro-1,6-naphthyridin-5(6H)-one] was 32 nM; that for `COc1cccc(Nc2cc(-c3cccc(-c4cccc(C(N)=O)c4)c3)nc3c2C(=O)NCC3)c1` [Example 12, 3'-{4-[(3-Methoxyphenyl)amino]-5-oxo-5,6,7,8-tetrahydro-1,6-naphthyridin-2-yl}biphenyl-3-carboxamide] was 0.28 nM; that for `COc1cccc(Nc2cc(-c3cccc(-c4ccc(C(=O)O)cc4)c3)nc3c2C(=O)NCC3)c1` [Example 13, 3'-{4-[(3-Methoxyphenyl)amino]-5-oxo-5,6,7,8-tetrahydro-1,6-naphthyridin-2-yl}biphenyl-4-carboxylic acid] was 0.34 nM.
For `COc1cccc(Nc2cc(-c3cccc(-c4cccc(C(=O)NCCN(C)C)c4)c3)nc3c2C(=O)NCC3)c1` [Example 14, N-[2-(Dimethylamino)ethyl]-3'-{4-[(3-methoxyphenyl)amino]-5-oxo-5,6,7,8-tetrahydro-1,6-naphthyridin-2-yl}biphenyl-3-carboxamide], the IC50 stood at 0.23 nM.
On to `COc1cccc(Nc2cc(-c3cccc(Sc4cccc(OC)c4)c3)nc3c2C(=O)NCC3)c1` [Example 16, 4-[(3-Methoxyphenyl)amino]-2-{3-[(3-methoxyphenyl)thio]phenyl}-7,8-dihydro-1,6-naphthyridin-5(6H)-one], for which the IC50 stood at 1.6 nM.
`O=C1NCCc2nc(-c3ccccc3)cc(NCc3ccncc3)c21` [Example 17, 2-Phenyl-4-[(pyridin-4-ylmethyl)amino]-7,8-dihydro-1,6-naphthyridin-5(6H)-one]: the IC50 was found to be 25 nM.
Take `NC(=O)c1ccc(Nc2cc(-c3ccccc3)nc3c2C(=O)NCC3)cc1` [Example 18, 4-[(5-Oxo-2-phenyl-5,6,7,8-tetrahydro-1,6-naphthyridin-4-yl)amino]benzamide]: the IC50 was found to be 1.5 nM.
For the compound `COc1cc(Nc2cc(-c3ccccc3)nc3c2C(=O)NCC3)ccc1C(=O)O` [Example 19, 2-Methoxy-4-[(5-oxo-2-phenyl-5,6,7,8-tetrahydro-1,6-naphthyridin-4-yl)amino]benzoic acid], the IC50 amounted to 2.3 nM.
Regarding `COc1cccc(Nc2cc(-c3ccncc3)nc3c2C(=O)NCC3)c1` [Example 22, 4-[(3-Methoxyphenyl)amino]-2-pyridin-4-yl-7,8-dihydro-1,6-naphthyridin-5(6H)-one], the IC50 was 3.6 nM.
With `O=C1NCCc2nc(-c3ccccc3)cc(Nc3cccc4ncccc34)c21` [Example 24, 2-Phenyl-4-(quinolin-5-ylamino)-7,8-dihydro-1,6-naphthyridin-5(6H)-one], the IC50 amounted to 0.96 nM.
`O=C(O)c1ccc(Nc2cc(-c3ccccc3)nc3c2C(=O)NCC3)cc1` [Example 25, 4-[(5-Oxo-2-phenyl-5,6,7,8-tetrahydro-1,6-naphthyridin-4-yl)amino]benzoic acid]: the IC50 is 9 nM.
On to `COc1cccc(Nc2cc(-c3ccccc3)nc3c2C(=O)NC(C)C3)c1` (stereo not drawn) [Example 26, 4-[(3-Methoxyphenyl)amino]-7-methyl-2-phenyl-7,8-dihydro-1,6-naphthyridin-5(6H)-one], for which the half-maximal inhibitory concentration (IC50) was found to be 117 nM.
`COc1cccc(Nc2nc(-c3ccccc3)nc3c2C(=O)NCC3)c1` [Example 32, 4-[(3-Methoxyphenyl)amino]-2-phenyl-7,8-dihydropyrido[4,3-d]pyrimidin-5(6H)-one]: the IC50 stood at 52 nM.
For `COc1cccc(Nc2cc(C3CC3)nc3c2C(=O)NCC3)c1` [Example 33, 2-Cyclopropyl-4-[(3-methoxyphenyl)amino]-7,8-dihydro-1,6-naphthyridin-5(6H)-one], the concentration for half-maximal inhibition (IC50) was 9 nM.
Next, `COc1cccc(Nc2cc(-c3cccc(-c4cc(C(=O)O)ccc4Cl)c3)nc3c2C(=O)NCC3)c1` [Example 35, 6-Chloro-3'-{4-[(3-methoxyphenyl)amino]-5-oxo-5,6,7,8-tetrahydro-1,6-naphthyridin-2-yl}biphenyl-3-carboxylic acid]: 0.81 nM; `O=C1NCCc2nc(-c3ccccc3)cc(Nc3cccc4cnccc34)c21` [Example 37, 4-(Isoquinolin-5-ylamino)-2-phenyl-7,8-dihydro-1,6-naphthyridin-5(6H)-one]: 14 nM; `O=C1NCCc2nc(-c3ccccc3)cc(Nc3ccc4ncccc4c3)c21` [Example 38, 2-Phenyl-4-(quinolin-6-ylamino)-7,8-dihydro-1,6-naphthyridin-5(6H)-one]: 2.3 nM.
Regarding `O=C1NCCc2nc(-c3ccccc3)cc(Nc3n[nH]c4ncccc34)c21` [Example 41, 2-Phenyl-4-(1H-pyrazolo[3,4-b]pyridin-3-ylamino)-7,8-dihydro-1,6-naphthyridin-5(6H)-one], the IC50 turned out to be 6 nM.
The value for `COc1cccc(Nc2cc(-c3cccc(-c4cc(C(=O)O)ccc4O)c3)nc3c2C(=O)NCC3)c1` [Example 43, 6-Hydroxy-3'-{4-[(3-methoxyphenyl)amino]-5-oxo-5,6,7,8-tetrahydro-1,6-naphthyridin-2-yl}biphenyl-3-carboxylic acid] was 10 nM; that for `COc1cccc(Nc2cc(-c3ccccc3)nc3c2C(=O)NCC3C)c1` (stereo not drawn) [Example 44, 4-[(3-Methoxyphenyl)amino]-8-methyl-2-phenyl-7,8-dihydro-1,6-naphthyridin-5(6H)-one] was 640 nM.
As for `O=C1NCCc2nc(-c3ccccc3)cc(Nc3ccc(C[C@@H](O)CO)cc3)c21` [Example 47, 4-({4-[(2R)-2,3-dihydroxypropyl]phenyl}amino)-2-phenyl-7,8-dihydro-1,6-naphthyridin-5(6H)-one], the IC50 was determined as 9 nM.
Next, `O=C(NC1CC1)c1cccc(-c2cccc(-c3cc(Nc4cccc5ncccc45)c4c(n3)CCNC4=O)c2)c1` [Example 49, N-Cyclopropyl-3'-[5-oxo-4-(quinolin-5-ylamino)-5,6,7,8-tetrahydro-1,6-naphthyridin-2-yl]biphenyl-3-carboxamide]: 0.17 nM.
For the compound `O=C1NCCc2nc(-c3ccccc3)cc(Nc3cccc4c3ccc[n+]4[O-])c21` [Example 51, 4-[(1-Oxidoquinolin-5-yl)amino]-2-phenyl-7,8-dihydro-1,6-naphthyridin-5(6H)-one], the IC50 stood at 0.43 nM.
With `O=C(NC1CC1)c1cccc(-c2cccc(-c3cc(Nc4cccc5c4ccc[n+]5[O-])c4c(n3)CCNC4=O)c2)c1` [Example 56, N-Cyclopropyl-3'-{4-[(1-oxidoquinolin-5-yl)amino]-5-oxo-5,6,7,8-tetrahydro-1,6-naphthyridin-2-yl}biphenyl-3-carboxamide], the IC50 turned out to be 0.05 nM.
As to `N#C/N=C1\NCCc2nc(-c3ccc(F)c(F)c3)cc(Nc3cccc4ncccc34)c21` [Example 57, [(5Z)-2-(3,4-Difluorophenyl)-4-(quinolin-5-ylamino)-7,8-dihydro-1,6-naphthyridin-5(6H)-ylidene]cyanamide], the IC50 came out at 0.9 nM.
`CN(C)CCCNC(=O)c1cccc(-c2cccc(-c3cc(Nc4cccc5ncccc45)c4c(n3)CCNC4=O)c2)c1` [Example 59, N-[3-(Dimethylamino)propyl]-3'-[5-oxo-4-(quinolin-5-ylamino)-5,6,7,8-tetrahydro-1,6-naphthyridin-2-yl]biphenyl-3-carboxamide]: the IC50 is 0.105 nM.
As to `Cc1c(F)cc(C(=O)NC2CC2)cc1-c1cccc(-c2cc(Nc3cccc4ncccc34)c3c(n2)CCNC3=O)c1` [Example 61, N-Cyclopropyl-5-fluoro-6-methyl-3'-[5-oxo-4-(quinolin-5-ylamino)-5,6,7,8-tetrahydro-1,6-naphthyridin-2-yl]biphenyl-3-carboxamide], the 50% inhibitory concentration (IC50) is 0.05 nM.

For orientation: IC50 means the concentration that inhibits the measured activity by half.
